Results as given in paper PMC7196807 (Proceedings of the National Academy of Sciences of the …, 2020).

Biological target: hIP6K1 (IP6K1) (Homo sapiens, UniProt Q92551)
Test: kinase product identified by Dipp1 cocrystal structure
Type: biochemical
Conditions: kinase site

hIP6K1 (IP6K1), sequence (Q92551 whole entry): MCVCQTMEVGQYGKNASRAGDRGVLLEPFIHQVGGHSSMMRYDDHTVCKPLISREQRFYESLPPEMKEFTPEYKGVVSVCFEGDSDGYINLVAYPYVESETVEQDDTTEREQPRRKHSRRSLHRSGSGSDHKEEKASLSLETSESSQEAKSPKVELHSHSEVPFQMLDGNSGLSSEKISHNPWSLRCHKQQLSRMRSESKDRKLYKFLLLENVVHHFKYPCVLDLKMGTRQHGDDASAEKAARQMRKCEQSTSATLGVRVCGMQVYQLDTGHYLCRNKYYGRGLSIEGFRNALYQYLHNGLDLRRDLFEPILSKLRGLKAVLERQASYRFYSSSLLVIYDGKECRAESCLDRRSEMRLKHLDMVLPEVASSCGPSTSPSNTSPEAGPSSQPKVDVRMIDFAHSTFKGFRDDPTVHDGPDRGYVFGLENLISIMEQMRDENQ

In the case of O=P(O)(O)O[C@H]1[C@@H](OP(=O)(O)O)[C@H](OP(=O)(O)O)[C@@H](OP(=O)(O)OP(=O)(O)O)[C@H](OP(=O)(O)O)[C@H]1OP(=O)(O)O [5-IP7], the “kinase product identified by Dipp1 cocrystal structure” value is reported as “IP6K1 IP7 product/DIPP complex confirms the stereomer as unambiguously 5-IP7”.
